Test results from patent US20150005288A1, “SUBSTITUTED PHENYLIMIDAZOPYRAZOLES AND USE THEREOF” (Bayer Intellectual Property GmbH, priority 2012, published 2015).

Target: T1, intracellular domain of human Tie2 (GST fusion protein) (Homo sapiens, UniProt Q02763)
T1 construct: intracellular domain of human Tie2 (amino acids 776-1124); made in house; host or cells: Baculovirus-infected insect cells (Hi5)
Assay: Tie2 kinase assay (Tie2-TR-FRET)
Assay type: biochemical
Settings: ATP concentration 1 mM, in some cases means of several independent determinations
Description: The Tie2-inhibitory activity of the substances according to the invention was determined with the aid of one of the Tie2-TR-FRET assays described in the sections below at an ATP concentration of 1 mM (TR-FRET=Time-Resolved Fluorescence Resonance Energy Transfer):
The enzyme used was a recombinant fusion protein of glutathione S-transferase (GST) and the intracellular domain of human Tie2 (amino acids 776-1124) which was expressed in Baculovirus-infected insect cells (Hi5) and was purified by affinity chromatography on glutathione-Sepharose. Alternatively, it is also possible to use commercially available GST-His6-Tie2 fusion protein (ProQinase GmbH, Freiburg im Breisgau, Germany). The substrate used for the kinase reaction was the biotinylated peptide biotin-Ahx-[…] (C-terminus in amide form) which is commercially available (for example from Biosyntan, Berlin, Germany).
For the assay, 50 nl of a 100-fold concentrated solution of the respective test substance in DMSO were pipetted into a black low-volume 384-well microtitre plate (Greiner Bio-One, Frickenhausen, Germany) 2 μl of a solution of the Tie2 fusion protein in assay buffer [50 mM HEPES/HCl pH 7, 10 mM MgCl2, 2.5 mM MnCl2, 1 mM dithiothreitol, 0.01% (v/v) Nonidet P-40, 0.1% (w/v) bovine serum albumin (BSA), 1× Complete EDTA-free protease inhibitor mixture (Roche)] were added, and the mixture was incubated for 15 min to allow pre-binding of the substance to the enzyme prior to the kinase reaction. The kinase reaction was then started by adding 3 μl of a solution of adenosine triphosphate (ATP, 1.67 mM→final concentration in 5 μl assay volume=1 mM) and substrate (1.67 μM→final concentration in 5 μl assay volume=1 μM) in assay buffer, and the resulting mixture was incubated for a reaction time of 60 min at 22° C. The concentration of the Tie2 fusion protein was adapted to the respective activity of the enzyme and adjusted such that the assay was carried out in the linear range. Typical concentrations were in the range of 30 ng/ml.
The reaction was stopped by addition of 5 μl of a solution of TR-FRET detection reagents [200 nM streptavidin-XL665 and 2 nM PT66-Eu chelate, a europium chelate-labelled anti-phosphotyrosine antibody (Perkin-Elmer); alternatively, it is also possible to use PT66-Tb cryptate (Cisbio Bioassays, Codolet, France)] in aqueous EDTA solution[90 mM EDTA, 0.28% (w/v) bovine serum albumin (BSA) in 50 mM HEPES pH 7.5]. The resulting mixture was incubated at 22° C. for 1 h to allow formation of the complex of the biotinylated phosphorylated substrate and the detection reagents. The amount of phosphorylated substrate was then determined by measuring the resonance energy transfer from PT66-Eu chelate to streptavidin-XL665. To this end, the fluorescence emissions at 620 nm and 665 nm after excitation at 350 nm were measured in a TR-FRET measuring instrument (for example Viewlux, Perkin-Elmer). The ratio of the emissions at 665 nm and at 620 nm was taken as a measure of the amount of phosphorylated substrate.
Usually, the test substance in question was tested on the same microtitre plate at […] different concentrations in the range from 20 μM to 0.073 nM (for example at 20 μM, 5.7 μM, 1.6 μM, 0.47 μM, 0.13 μM, 38 nM, 11 nM, 3.1 nM, 0.89 nM, 0.25 nM and 0.073 nM) in duplicate for each concentration. The dilution series were prepared prior to the assay at the stage of the 100-fold concentrated solution by serial dilution (the exact concentrations may vary depending on the pipettors used in each case). IC50 values were calculated using a 4-parameter fit, with the aid of inhouse software.
Table 1 below lists the IC50 values from this assay for individual working examples (in some cases as means of several independent individual determinations): […]

T1 sequence (Q02763 776-1124): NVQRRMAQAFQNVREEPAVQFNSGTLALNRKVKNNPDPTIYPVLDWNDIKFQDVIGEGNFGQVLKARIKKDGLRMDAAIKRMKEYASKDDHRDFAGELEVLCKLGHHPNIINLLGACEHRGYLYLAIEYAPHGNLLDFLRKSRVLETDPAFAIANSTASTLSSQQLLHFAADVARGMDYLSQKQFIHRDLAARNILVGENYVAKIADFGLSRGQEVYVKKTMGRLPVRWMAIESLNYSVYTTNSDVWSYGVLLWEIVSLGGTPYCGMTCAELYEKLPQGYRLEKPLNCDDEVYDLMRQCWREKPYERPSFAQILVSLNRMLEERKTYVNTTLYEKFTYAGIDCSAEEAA

Cc1ccc(NC(=O)c2cc(CN3CCCC3)cc(S(F)(F)(F)(F)F)c2)cc1-n1ccn2nc(-c3cccnc3)cc12 [Example 33, N-{4-Methyl-3-[6-(pyridin-3-yl)-1H-imidazo[1,2-b]pyrazol-1-yl]phenyl}-3-(pentafluoro-λ^6-sulphanyl)-5-(pyrrolidin-1-ylmethyl)benzamide]
IC50: 2.5 nM

Cc1ccc(NC(=O)c2cc(CN3CC[C@H](O)C3)cc(S(F)(F)(F)(F)F)c2)cc1-n1ccn2nc(-c3cccnc3)cc12 [Example 34, 3-{[(3S)-3-Hydroxypyrrolidin-1-yl]methyl}-N-{4-methyl-3-[6-(pyridin-3-yl)-1H-imidazo[1,2-b]-pyrazol-1-yl]phenyl}-5-(pentafluoro-λ^6-sulphanyl)benzamide]
IC50: 2.1 nM

Cc1ccc(NC(=O)c2cc(CN3CCNCC3)cc(S(F)(F)(F)(F)F)c2)cc1-n1ccn2nc(-c3cccnc3)cc12 [Example 35, N-{4-Methyl-3-[6-(pyridin-3-yl)-1H-imidazo[1,2-b]pyrazol-1-yl]phenyl}-3-(pentafluoro-λ^6-sulphanyl)-5-(piperazin-1-ylmethyl)benzamide]
IC50: 0.5 nM

Cc1ccc(NC(=O)c2cc(CN3CCN(C)CC3)cc(S(F)(F)(F)(F)F)c2)cc1-n1ccn2nc(-c3cccnc3)cc12 [Example 36, 3-[(4-Methylpiperazin-1-yl)methyl]-N-{4-methyl-3-[6-(pyridin-3-yl)-1H-imidazo[1,2-b]pyrazol-1-yl]phenyl}-5-(pentafluoro-λ^6-sulphanyl)benzamide]
IC50: 0.3 nM

Cc1ccc(NC(=O)c2cc(C3(O)CNC3)cc(S(F)(F)(F)(F)F)c2)cc1-n1ccn2nc(-c3cccnc3)cc12 [Example 37, 3-(3-Hydroxyazetidin-3-yl)-N-{4-methyl-3-[6-(pyridin-3-yl)-1H-imidazo[1,2-b]pyrazol-1-yl]-phenyl}-5-(pentafluoro-λ^6-sulphanyl)benzamide bis(trifluoroacetate)]
IC50: 0.4 nM

Cc1ccc(NC(=O)c2cc(C#N)cc(OC(F)(F)F)c2)cc1-n1ccn2nc(-c3cccnc3)cc12 [Example 38, 3-Cyano-N-{4-methyl-3-[6-(pyridin-3-yl)-1H-imidazo[1,2-b]pyrazol-1-yl]phenyl}-5-(trifluoromethoxy)benzamide]
IC50: 15 nM

Cc1ccc(NC(=O)c2cccc(C(F)(F)F)c2)cc1-n1ccn2nc(-c3cccnc3)cc12 [Example 39, N-{4-Methyl-3-[6-(pyridin-3-yl)-1H-imidazo[1,2-b]pyrazol-1-yl]phenyl}-3-(trifluoromethyl)-benzamide]
IC50: 320 nM

Cc1ccc(NC(=O)c2cc(N3CCN(C)CC3)cc(C(F)(F)F)c2)cc1-n1ccn2nc(-c3cccnc3)cc12 [Example 41, 3-(4-Methylpiperazin-1-yl)-N-{4-methyl-3-[6-(pyridin-3-yl)-1H-imidazo[1,2-b]pyrazol-1-yl]-phenyl}-5-(trifluoromethyl)benzamide]
IC50: 35 nM

Cc1ccc(NC(=O)c2cc(N(C)CCCN(C)C)cc(C(F)(F)F)c2)cc1-n1ccn2nc(-c3cccnc3)cc12 [Example 42, 3-{[3-(Dimethylamino)propyl](methyl)amino}-N-{4-methyl-3-[6-(pyridin-3-yl)-1H-imidazo-[1,2-b]pyrazol-1-yl]phenyl}-5-(trifluoromethyl)benzamide]
IC50: 1.5 nM

Cc1ccc(NC(=O)c2cc(C(F)(F)F)cc(C(F)(F)F)c2)cc1-n1ccn2nc(-c3cccnc3)cc12 [Example 43, N-{4-Methyl-3-[6-(pyridin-3-yl)-1H-imidazo[1,2-b]pyrazol-1-yl]phenyl}-3,5-bis(trifluoromethyl)-benzamide]
IC50: 56 nM

Cc1ccc(NC(=O)c2cc(C#N)cc(C(F)(F)F)c2)cc1-n1ccn2nc(-c3cccnc3)cc12 [Example 44, 3-Cyano-N-{4-methyl-3-[6-(pyridin-3-yl)-1H-imidazo[1,2-b]pyrazol-1-yl]phenyl}-5-(trifluoromethyl)benzamide]
IC50: 130 nM

Cc1ccc(NC(=O)c2ccc(F)c(C(F)(F)F)c2)cc1-n1ccn2nc(-c3cccnc3)cc12 [Example 45, 4-Fluoro-N-{4-methyl-3-[6-(pyridin-3-yl)-1H-imidazo[1,2-b]pyrazol-1-yl]phenyl}-3-(trifluoromethyl)benzamide]
IC50: 740 nM

Cc1ccc(NC(=O)c2cccc(C(F)(F)F)c2F)cc1-n1ccn2nc(-c3cccnc3)cc12 [Example 46, 2-Fluoro-N-{4-methyl-3-[6-(pyridin-3-yl)-1H-imidazo[1,2-b]pyrazol-1-yl]phenyl}-3-(trifluoromethyl)benzamide]
IC50: 980 nM

Cc1ccc(NC(=O)c2cc(-n3ccnc3C)cc(C(C)(C)C)c2)cc1-n1ccn2nc(-c3cccnc3)cc12 [Example 47, 3-tert-Butyl-5-(2-methyl-1H-imidazol-1-yl)-N-{4-methyl-3-[6-(pyridin-3-yl)-1H-imidazo[1,2-b]-pyrazol-1-yl]phenyl}benzamide]
IC50: 0.3 nM

Cc1ccc(NC(=O)c2cc(C(C)(C)C)cc(C(C)(C)O)c2)cc1-n1ccn2nc(-c3cccnc3)cc12 [Example 49, 3-tert-Butyl-5-(2-hydroxypropan-2-yl)-N-{4-methyl-3-[6-(pyridin-3-yl)-1H-imidazo[1,2-b]-pyrazol-1-yl]phenyl}benzamide]
IC50: 0.3 nM

Cc1ccc(NC(=O)c2cc(C#N)cc(C(C)(C)C)c2)cc1-n1ccn2nc(-c3cccnc3)cc12 [Example 50, 3-tert-Butyl-5-cyano-N-{4-methyl-3-[6-(pyridin-3-yl)-1H-imidazo[1,2-b]pyrazol-1-yl]phenyl}-benzamide]
IC50: 1.2 nM

Cc1cc(C)cc(C(=O)Nc2ccc(C)c(-n3ccn4nc(-c5cccnc5)cc34)c2)c1 [Example 52, 3,5-Dimethyl-N-{4-methyl-3-[6-(pyridin-3-yl)-1H-imidazo[1,2-b]pyrazol-1-yl]phenyl}benzamide]
IC50: 230 nM

Cc1ccc(NC(=O)c2cc(C(C)C)ccc2O)cc1-n1ccn2nc(-c3cccnc3)cc12 [Example 53, 2-Hydroxy-N-{4-methyl-3-[6-(pyridin-3-yl)-1H-imidazo[1,2-b]pyrazol-1-yl]phenyl}-5-(propan-2-yl)benzamide]
IC50: 340 nM

Cc1ccc(NC(=O)c2cccc(-c3cccc(C#N)c3)c2)cc1-n1ccn2nc(-c3cccnc3)cc12 [Example 54, 3′-Cyano-N-{4-methyl-3-[6-(pyridin-3-yl)-1H-imidazo[1,2-b]pyrazol-1-yl]phenyl}biphenyl-3-carboxamide]
IC50: 670 nM

Cc1ccc(NC(=O)c2cccc(-n3cccn3)c2)cc1-n1ccn2nc(-c3cccnc3)cc12 [Example 55, N-{4-Methyl-3-[6-(pyridin-3-yl)-1H-imidazo[1,2-b]pyrazol-1-yl]phenyl}-3-(1H-pyrazol-1-yl)-benzamide]
IC50: 275 nM

Cc1ccc(NC(=O)c2cccc(N3CCCC3)c2)cc1-n1ccn2nc(-c3cccnc3)cc12 [Example 56, N-{4-Methyl-3-[6-(pyridin-3-yl)-1H-imidazo[1,2-b]pyrazol-1-yl]phenyl}-3-(pyrrolidin-1-yl)-benzamide]
IC50: 52 nM

Cc1ccc(NC(=O)c2cc(N3CCCC3)ccc2Cl)cc1-n1ccn2nc(-c3cccnc3)cc12 [Example 57, 2-Chloro-N-{4-methyl-3-[6-(pyridin-3-yl)-1H-imidazo[1,2-b]pyrazol-1-yl]phenyl}-5-(pyrrolidin-1-yl)benzamide]
IC50: 995 nM

Cc1ccc(NC(=O)c2ccc(Cl)c(N3CCCCC3)c2)cc1-n1ccn2nc(-c3cccnc3)cc12 [Example 58, 4-Chloro-N-{4-methyl-3-[6-(pyridin-3-yl)-1H-imidazo[1,2-b]pyrazol-1-yl]phenyl}-3-(piperidin-1-yl)benzamide]
IC50: 330 nM
